Reference: PubChem BioAssay AID1259407 (Chemical Carcinogenesis Research Information System (CCRIS), 2018)
The source made the active and inactive calls. No rule for the calls is given here.

Tested on: CCRIS mutagenicity, Ames/micronucleus/aberration tests
Test: CCRIS mutagenicity studies
[1] = Test System: AMES SALMONELLA TYPHIMURIUM, Strain/Indicator: TA97, Metabolic Activation: NONE, Method: PREINCUBATION
[2] = Test System: AMES SALMONELLA TYPHIMURIUM, Strain/Indicator: TA98, Metabolic Activation: NONE, Method: PREINCUBATION
[3] = Test System: AMES SALMONELLA TYPHIMURIUM, Strain/Indicator: TA100, Metabolic Activation: NONE, Method: PREINCUBATION
[4] = Test System: AMES SALMONELLA TYPHIMURIUM, Strain/Indicator: TA1535, Metabolic Activation: NONE, Method: PREINCUBATION

## O=c1[nH]c(=O)n([C@H]2C[C@H](O)[C@@H](CO)O2)cc1/C=C/Br
[1]
  mutagenic call: inactive; negative
Test System: AMES SALMONELLA TYPHIMURIUM, Strain/Indicator: TA97, Metabolic Activation: RAT, LIVER, S-9, AROCLOR 1254, Method: PREINCUBATION
  mutagenic call: inactive; negative
[2]
  mutagenic call: inactive; negative
Test System: AMES SALMONELLA TYPHIMURIUM, Strain/Indicator: TA98, Metabolic Activation: NONE, Method: STANDARD PLATE
  mutagenic call: inactive; negative
Test System: AMES SALMONELLA TYPHIMURIUM, Strain/Indicator: TA98, Metabolic Activation: RAT, LIVER, S-9, AROCLOR 1254, Method: PREINCUBATION
  mutagenic call: inactive; negative
Test System: AMES SALMONELLA TYPHIMURIUM, Strain/Indicator: TA98, Metabolic Activation: RAT, LIVER, S-9, AROCLOR 1254, Method: STANDARD PLATE
  mutagenic call: inactive; negative
[3]
  mutagenic call: inactive; negative
Test System: AMES SALMONELLA TYPHIMURIUM, Strain/Indicator: TA100, Metabolic Activation: NONE, Method: STANDARD PLATE
  mutagenic call: inactive; negative
Test System: AMES SALMONELLA TYPHIMURIUM, Strain/Indicator: TA100, Metabolic Activation: RAT, LIVER, S-9, AROCLOR 1254, Method: PREINCUBATION
  mutagenic call: inactive; negative
Test System: AMES SALMONELLA TYPHIMURIUM, Strain/Indicator: TA100, Metabolic Activation: RAT, LIVER, S-9, AROCLOR 1254, Method: STANDARD PLATE
  mutagenic call: inactive; negative
Test System: AMES SALMONELLA TYPHIMURIUM, Strain/Indicator: TA102, Metabolic Activation: NONE, Method: PREINCUBATION
  mutagenic call: inactive; negative
Test System: AMES SALMONELLA TYPHIMURIUM, Strain/Indicator: TA102, Metabolic Activation: RAT, LIVER, S-9, AROCLOR 1254, Method: PREINCUBATION
  mutagenic call: inactive; negative
Test System: AMES SALMONELLA TYPHIMURIUM, Strain/Indicator: TA104, Metabolic Activation: NONE, Method: PREINCUBATION
  mutagenic call: inactive; negative
Test System: AMES SALMONELLA TYPHIMURIUM, Strain/Indicator: TA104, Metabolic Activation: RAT, LIVER, S-9, AROCLOR 1254, Method: PREINCUBATION
  mutagenic call: inactive; negative
[4]
  mutagenic call: inactive; negative
Test System: AMES SALMONELLA TYPHIMURIUM, Strain/Indicator: TA1535, Metabolic Activation: NONE, Method: STANDARD PLATE
  mutagenic call: inactive; negative
Test System: AMES SALMONELLA TYPHIMURIUM, Strain/Indicator: TA1535, Metabolic Activation: RAT, LIVER, S-9, AROCLOR 1254, Method: PREINCUBATION
  mutagenic call: inactive; negative
Test System: AMES SALMONELLA TYPHIMURIUM, Strain/Indicator: TA1535, Metabolic Activation: RAT, LIVER, S-9, AROCLOR 1254, Method: STANDARD PLATE
  mutagenic call: inactive; negative
Test System: AMES SALMONELLA TYPHIMURIUM, Strain/Indicator: TA1537, Metabolic Activation: NONE, Method: PREINCUBATION
  mutagenic call: inactive; negative
Test System: AMES SALMONELLA TYPHIMURIUM, Strain/Indicator: TA1537, Metabolic Activation: NONE, Method: STANDARD PLATE
  mutagenic call: inactive; negative
Test System: AMES SALMONELLA TYPHIMURIUM, Strain/Indicator: TA1537, Metabolic Activation: RAT, LIVER, S-9, AROCLOR 1254, Method: PREINCUBATION
  mutagenic call: inactive; negative
Test System: AMES SALMONELLA TYPHIMURIUM, Strain/Indicator: TA1537, Metabolic Activation: RAT, LIVER, S-9, AROCLOR 1254, Method: STANDARD PLATE
  mutagenic call: inactive; negative
Test System: AMES SALMONELLA TYPHIMURIUM, Strain/Indicator: TA1538, Metabolic Activation: NONE, Method: PREINCUBATION
  mutagenic call: inactive; negative
Test System: AMES SALMONELLA TYPHIMURIUM, Strain/Indicator: TA1538, Metabolic Activation: NONE, Method: STANDARD PLATE
  mutagenic call: inactive; negative
Test System: AMES SALMONELLA TYPHIMURIUM, Strain/Indicator: TA1538, Metabolic Activation: RAT, LIVER, S-9, AROCLOR 1254, Method: PREINCUBATION
  mutagenic call: inactive; negative
Test System: AMES SALMONELLA TYPHIMURIUM, Strain/Indicator: TA1538, Metabolic Activation: RAT, LIVER, S-9, AROCLOR 1254, Method: STANDARD PLATE
  mutagenic call: inactive; negative
Test System: CHINESE HAMSTER OVARY, Strain/Indicator: CHO-K1-BH4 (HGPRT), Metabolic Activation: NONE
  mutagenic call: inactive; negative
Test System: CHINESE HAMSTER V-79, Strain/Indicator: V-79/8-AZAGUANINE, Metabolic Activation: NONE
  mutagenic call: inactive; negative
Test System: MOUSE LYMPHOMA, Strain/Indicator: L5178Y (TK+/TK-), Metabolic Activation: NONE, Method: SUSPENSION/PLATE
  mutagenic call: active; positive
Test System: MOUSE LYMPHOMA, Strain/Indicator: L5178Y (TK+/TK-), Metabolic Activation: RAT, LIVER, S-9, AROCLOR 1254, Method: SUSPENSION/PLATE
  mutagenic call: inactive; negative
Test System: UDS RAT PRIMARY HEPATOCYTES, Strain/Indicator: THY INCORP (NON-S-PHASE), Metabolic Activation: NONE
  mutagenic call: inactive; negative
Test System: UDS RODENT HEPATOCYTES, Strain/Indicator: THY INCORP, Metabolic Activation: NONE
  mutagenic call: inactive; negative

## COC=O
Test System: AMES SALMONELLA TYPHIMURIUM, Strain/Indicator: TA97, Metabolic Activation: HAMSTER, LIVER, S-9, AROCLOR 1254 (10 OR 30%), Method: PREINCUBATION
  mutagenic call: inactive; negative
[1]
  mutagenic call: inactive; negative
Test System: AMES SALMONELLA TYPHIMURIUM, Strain/Indicator: TA97, Metabolic Activation: RAT, LIVER, S-9, AROCLOR 1254 (10 OR 30%), Method: PREINCUBATION
  mutagenic call: inactive; negative
Test System: AMES SALMONELLA TYPHIMURIUM, Strain/Indicator: TA98, Metabolic Activation: HAMSTER, LIVER, S-9, AROCLOR 1254 (10 OR 30%), Method: PREINCUBATION
  mutagenic call: inactive; negative
Test System: AMES SALMONELLA TYPHIMURIUM, Strain/Indicator: TA98, Metabolic Activation: NONE, Method: GAS EXPOSURE
  mutagenic call: inactive; negative
[2]
  mutagenic call: inactive; negative
Test System: AMES SALMONELLA TYPHIMURIUM, Strain/Indicator: TA98, Metabolic Activation: RAT, LIVER, S-9, AROCLOR 1254 (10 OR 30%), Method: PREINCUBATION
  mutagenic call: inactive; negative
Test System: AMES SALMONELLA TYPHIMURIUM, Strain/Indicator: TA98, Metabolic Activation: RAT, LIVER, S-9, SODIUM PHENOBARBITAL AND 5,6-BENZOFLAVONE, Method: GAS EXPOSURE
  mutagenic call: inactive; negative
Test System: AMES SALMONELLA TYPHIMURIUM, Strain/Indicator: TA100, Metabolic Activation: HAMSTER, LIVER, S-9, AROCLOR 1254 (10 OR 30%), Method: PREINCUBATION
  mutagenic call: inactive; negative
Test System: AMES SALMONELLA TYPHIMURIUM, Strain/Indicator: TA100, Metabolic Activation: NONE, Method: GAS EXPOSURE
  mutagenic call: inactive; negative
[3]
  mutagenic call: inactive; negative
Test System: AMES SALMONELLA TYPHIMURIUM, Strain/Indicator: TA100, Metabolic Activation: RAT, LIVER, S-9, AROCLOR 1254 (10 OR 30%), Method: PREINCUBATION
  mutagenic call: inactive; negative
Test System: AMES SALMONELLA TYPHIMURIUM, Strain/Indicator: TA100, Metabolic Activation: RAT, LIVER, S-9, SODIUM PHENOBARBITAL AND 5,6-BENZOFLAVONE, Method: GAS EXPOSURE
  mutagenic call: inactive; negative
Test System: AMES SALMONELLA TYPHIMURIUM, Strain/Indicator: TA1535, Metabolic Activation: HAMSTER, LIVER, S-9, AROCLOR 1254 (10 OR 30%), Method: PREINCUBATION
  mutagenic call: inactive; negative
Test System: AMES SALMONELLA TYPHIMURIUM, Strain/Indicator: TA1535, Metabolic Activation: NONE, Method: GAS EXPOSURE
  mutagenic call: inactive; negative
[4]
  mutagenic call: inactive; negative
Test System: AMES SALMONELLA TYPHIMURIUM, Strain/Indicator: TA1535, Metabolic Activation: RAT, LIVER, S-9, AROCLOR 1254 (10 OR 30%), Method: PREINCUBATION
  mutagenic call: inactive; negative
Test System: AMES SALMONELLA TYPHIMURIUM, Strain/Indicator: TA1535, Metabolic Activation: RAT, LIVER, S-9, SODIUM PHENOBARBITAL AND 5,6-BENZOFLAVONE, Method: GAS EXPOSURE
  mutagenic call: inactive; negative
Test System: AMES SALMONELLA TYPHIMURIUM, Strain/Indicator: TA1537, Metabolic Activation: NONE, Method: GAS EXPOSURE
  mutagenic call: inactive; negative
Test System: AMES SALMONELLA TYPHIMURIUM, Strain/Indicator: TA1537, Metabolic Activation: RAT, LIVER, S-9, SODIUM PHENOBARBITAL AND 5,6-BENZOFLAVONE, Method: GAS EXPOSURE
  mutagenic call: inactive; negative
Test System: E. COLI, Strain/Indicator: WP2UVRA, Metabolic Activation: NONE, Method: GAS EXPOSURE
  mutagenic call: inactive; negative
Test System: E. COLI, Strain/Indicator: WP2UVRA, Metabolic Activation: RAT, LIVER, S-9, PHENOBARBITAL AND BETA--NAPHTHOFLAVONE, Method: GAS EXPOSURE
  mutagenic call: inactive; negative
